Experimental data: patent publication US20230184744A1, “INTERTUMORAL HOMOGENEITY DETERMINED BY MiCK ASSAY” (Pierian Biosciences, LLC, priority 2014, published 2023)
Like-named read-outs stand apart in the source and are kept apart here.

Key:
[1] = tested on: Probable mesothelioma (pleural effusion); test: MiCK assay, drug-induced apoptosis, Table 3 tumor A2; assay type: cell-based, human
Method: (§1) Data were obtained optically using Mie light-scattering.
When the optimal cell concentration is reached, put the cells in the plate and incubate overnight in the incubating chamber of the incubator (37° C.).

[2] = tested on: NSCLC, bilateral well-differentiated adenocarcinoma (site 1A); test: MiCK assay, drug-induced apoptosis, Table 3 tumor B1; assay type: cell-based, human
Text: as §1
(§2) Do a test well. […] Look at the well under the inverted microscope. […] Repeat until optimal cell concentration is found. Plate the cells into the wells.

[3] = tested on: NSCLC, bilateral well-differentiated adenocarcinoma (site 1B); test: MiCK assay, drug-induced apoptosis, Table 3 tumor B2; assay type: cell-based, human
Text: as §1, §2

[4] = tested on: NSCLC, multi-focal, recurrent adenocarcinoma (site A); test: MiCK assay, drug-induced apoptosis, Table 3 tumor C1; assay type: cell-based, human
Text: as §1, §2

[5] = tested on: NSCLC, multi-focal, recurrent adenocarcinoma (site B); test: MiCK assay, drug-induced apoptosis, Table 3 tumor C2; assay type: cell-based, human
Text: as §1, §2

[6] = tested on: NSCLC, multi-focal, recurrent adenocarcinoma (right lung); test: MiCK assay, drug-induced apoptosis, Table 3 tumor D1; assay type: cell-based, human
Text: as §1, §2

[7] = tested on: NSCLC, multi-focal, recurrent adenocarcinoma (lymph node); test: MiCK assay, drug-induced apoptosis, Table 3 tumor D2; assay type: cell-based, human
Text: as §1, §2

[8] = tested on: NSCLC, multi-focal adenocarcinoma (site A); test: MiCK assay, drug-induced apoptosis, Table 3 tumor E1; assay type: cell-based, human
Text: as §1, §2

[9] = tested on: NSCLC, multi-focal adenocarcinoma (site B); test: MiCK assay, drug-induced apoptosis, Table 3 tumor E2; assay type: cell-based, human
Text: as §1, §2

[10] = tested on: Lung adenocarcinoma (pleural effusion); test: MiCK assay, drug-induced apoptosis, Table 4 tumor B1; assay type: cell-based, human
Text: as §1
(§3) Patients: Three patients were included in this study. […] Patient A was diagnosed with pancreatic islet cell cancer; sample 1 was collected from lymph node and sample 2 was collected from the primary tumor. Patient B was diagnosed with lung cancer NSCLC adenocarcinoma; sample 1 was collected from pleural effusion and sample 2 was collected from solid tumor. […] Ages of the patients ranged from 51-79 years old with an average age of 65 years. One patient was […] and two were female.

[11] = tested on: Lung adenocarcinoma (solid tumor); test: MiCK assay, drug-induced apoptosis, Table 4 tumor B2; assay type: cell-based, human
Text: as §1, §3

[12] = tested on: Pancreatic islet cell cancer (lymph node); test: MiCK assay, drug-induced apoptosis, Table 4 tumor A1
Method: (§4) After overnight incubation, chemotherapy drugs were added to the wells of the 96-well plate in 5 μL aliquots or to the wells of a 384-well plate in 2.5 μL aliquots using an automated pipettor. The number of drugs or drug combinations and the number of concentrations tested depended on the number of viable malignant cells that were isolated from the tumor specimen. The drug concentrations, determined by molarity, were those indicated by the manufacturer as the desired blood level concentration plus or minus one serial dilution if enough cells were available.
(§5) Following drug addition, the plate was incubated for 30 min. at 37° C. in a 5% carbon dioxide humidified atmosphere incubator. Each well was then overlayed with sterile mineral oil, and the plate was placed into the incubator chamber of a microplate spectrophotometric reader. The optical density at 600 nanometers was read and recorded every 5 minutes over a period of 48 hours.
(§6) Patients: Three patients were included in this study. Two tumor samples from different tumor sites were collected from each patient. Both samples from each patient were collected on the same day.

[13] = tested on: Lung small cell carcinoma (site A); test: MiCK assay, drug-induced apoptosis, Table 4 tumor C1
Method: as §4, §5, §6

[14] = tested on: Lung adenocarcinoma (site B); test: MiCK assay, drug-induced apoptosis, Table 4 tumor C2
Method: as §4
(§7) Following drug addition, the plate was incubated for 30 min. at 37° C. in a 5% carbon dioxide humidified atmosphere incubator. Each well was then overlayed with sterile mineral oil, and the plate was placed into the incubator chamber of a microplate spectrophotometric reader. The optical density at 600 nanometers was read and recorded every 5 minutes over a period of 48 hours. Optical density increases, which correlates with apoptosis, were converted to kinetic units (KU) of apoptosis by a proprietary software ProApo with a formula described in the Kravtsov reference incorporated by reference (i.e. Kravtsov V. et al. “Use of the Microculture Kinetic Assay of apoptosis to determine chemosensitivities of leukemias.” Blood 1998; 92:968-980).
(§8) Purified tumor cells were cultured for 48 hours with individual drugs, and drug-induced apoptosis was measured using the MiCK assay as described in Example 1. Data were obtained optically using Mie light-scattering.

[15] = tested on: Pancreatic islet cell cancer (primary tumor); test: MiCK assay, drug-induced apoptosis, Table 4 tumor A2; details: 48 hours with drug
Method: as §4, §7, §8

[16] = Table 3 tumor A2: Probable mesothelioma (pleural effusion), 48 hours with drug
[17] = Table 3 tumor B1: NSCLC, bilateral well-differentiated adenocarcinoma (site 1A), 48 hours with drug
[18] = Table 3 tumor B2: NSCLC, bilateral well-differentiated adenocarcinoma (site 1B), 48 hours with drug
[19] = Table 3 tumor C1: NSCLC, multi-focal, recurrent adenocarcinoma (site A), 48 hours with drug
[20] = Table 3 tumor C2: NSCLC, multi-focal, recurrent adenocarcinoma (site B), 48 hours with drug
[21] = Table 3 tumor D1: NSCLC, multi-focal, recurrent adenocarcinoma (right lung), 48 hours with drug
[22] = Table 3 tumor D2: NSCLC, multi-focal, recurrent adenocarcinoma (lymph node), 48 hours with drug
[23] = Table 3 tumor E1: NSCLC, multi-focal adenocarcinoma (site A), 48 hours with drug
[24] = Table 3 tumor E2: NSCLC, multi-focal adenocarcinoma (site B), 48 hours with drug
[25] = Table 4 tumor B1: Lung adenocarcinoma (pleural effusion), 48 hours with drug
[26] = Table 4 tumor B2: Lung adenocarcinoma (solid tumor), 48 hours with drug
[27] = Table 4 tumor A1: Pancreatic islet cell cancer (lymph node), 48 hours with drug
[28] = Table 4 tumor C1: Lung small cell carcinoma (site A), 48 hours with drug
[29] = Table 4 tumor C2: Lung adenocarcinoma (site B), 48 hours with drug

SMILES	kinetic units (KU) of apoptosis [1, 16]	kinetic units (KU) of apoptosis [2, 17]	kinetic units (KU) of apoptosis [3, 18]	kinetic units (KU) of apoptosis [4, 19]	kinetic units (KU) of apoptosis [5, 20]	kinetic units (KU) of apoptosis [6, 21]	kinetic units (KU) of apoptosis [7, 22]	kinetic units (KU) of apoptosis [8, 23]	kinetic units (KU) of apoptosis [9, 24]	kinetic units (KU) of apoptosis [10, 25]	kinetic units (KU) of apoptosis [11, 26]	kinetic units (KU) of apoptosis [12, 27]	kinetic units (KU) of apoptosis [13, 28]	kinetic units (KU) of apoptosis [14, 29]	kinetic units (KU) of apoptosis [15]	also measured
Nc1ccn([C@@H]2O[C@H](CO)[C@@H](O)C2(F)F)c(=O)n1 [Gemcitabine]	0.70 KU	1.20 KU	1.10 KU	0.00 KU	0.70 KU	0.10 KU	0.90 KU	0.30 KU	0.50 KU	1.10 KU	3.20 KU	1.08 KU	2.20 KU	1.30 KU	–	–
CC[C@]1(O)C[C@H]2CN(CCc3c([nH]c4ccccc34)[C@@](C(=O)OC)(c3cc4c(cc3OC)N(C=O)[C@H]3[C@@](O)(C(=O)OC)[C@H](OC(C)=O)[C@]5(CC)C=CCN6CC[C@]43[C@@H]65)C2)C1 [Vincristine]	2.80 KU	1.30 KU	1.50 KU	0.00 KU	0.40 KU	0.40 KU	0.90 KU	0.10 KU	0.10 KU	0.90 KU	–	0.82 KU	1.00 KU	1.60 KU	–	–
CC(=O)O[C@H]1C(=O)[C@@]2(C)[C@H]([C@H](OC(=O)c3ccccc3)[C@]3(O)C[C@H](OC(=O)[C@H](O)[C@@H](NC(=O)c4ccccc4)c4ccccc4)C(C)=C1C3(C)C)[C@]1(OC(C)=O)CO[C@@H]1C[C@@H]2O [Paclitaxel]	1.40 KU	1.70 KU	0.90 KU	0.00 KU	1.00 KU	1.40 KU	0.90 KU	0.00 KU	0.50 KU	3.00 KU	4.00 KU	3.43 KU	1.70 KU	3.60 KU	2.06 KU	–
CN(Cc1cnc2nc(N)nc(N)c2n1)c1ccc(C(=O)N[C@@H](CCC(=O)O)C(=O)O)cc1 [Methotrexate]	0.50 KU	1.00 KU	–	–	–	–	–	–	–	1.40 KU	1.30 KU	0.66 KU	1.30 KU	0.60 KU	–	–
N.N.O=C([O-])C1(C(=O)[O-])CCC1.[Pt+2] [Carboplatin]	1.50 KU	1.90 KU	2.20 KU	0.40 KU	1.20 KU	1.00 KU	0.80 KU	0.30 KU	0.30 KU	1.20 KU	2.40 KU	1.08 KU	5.30 KU	2.60 KU	1.48 KU	–
COc1cc([C@@H]2c3cc4c(cc3[C@@H](O[C@@H]3O[C@@H]5CO[C@@H](C)O[C@H]5[C@H](O)[C@H]3O)[C@H]3COC(=O)[C@H]23)OCO4)cc(OC)c1O [Etoposide]	1.20 KU	1.10 KU	1.20 KU	0.80 KU	–	1.60 KU	0.90 KU	0.40 KU	–	2.30 KU	–	1.08 KU	4.60 KU	–	0.00 KU	–
O=C1[O][Pt]2([NH][C@@H]3CCCC[C@H]3[NH]2)[O]C1=O [Oxaliplatin]	–	–	–	–	–	–	–	–	–	3.00 KU	3.10 KU	1.08 KU	4.40 KU	2.50 KU	–	–
CC[C@@]1(O)C(=O)OCc2c1cc1n(c2=O)Cc2cc3c(CN(C)C)c(O)ccc3nc2-1 [Topotecan]	3.60 KU	1.70 KU	0.80 KU	0.50 KU	0.00 KU	0.40 KU	1.00 KU	0.70 KU	0.30 KU	1.30 KU	–	–	9.30 KU	4.10 KU	–	–
CCc1c2c(nc3ccc(OC(=O)N4CCC(N5CCCCC5)CC4)cc13)-c1cc3c(c(=O)n1C2)COC(=O)[C@]3(O)CC [Irinotecan]	1.30 KU	1.60 KU	1.50 KU	0.40 KU	0.30 KU	0.40 KU	0.90 KU	0.60 KU	0.10 KU	0.60 KU	–	1.50 KU	1.40 KU	2.10 KU	1.16 KU	–
O=P1(N(CCCl)CCCl)NCCCO1 (centres unmarked) [4HC (Cytoxan), Cytoxan]	–	–	–	–	–	–	–	–	–	–	–	–	–	–	–	kinetic units (KU) of apoptosis [1]: 3.10 KU; kinetic units (KU) of apoptosis [2]: 1.10 KU; kinetic units (KU) of apoptosis [3]: 1.20 KU; kinetic units (KU) of apoptosis [4]: 0.60 KU; kinetic units (KU) of apoptosis [5]: 0.00 KU; kinetic units (KU) of apoptosis [6]: 1.20 KU; kinetic units (KU) of apoptosis [7]: 1.20 KU; kinetic units (KU) of apoptosis [8]: 0.50 KU; kinetic units (KU) of apoptosis [9]: 0.30 KU; kinetic units (KU) of apoptosis [10]: 1.20 KU; kinetic units (KU) of apoptosis [11]: 2.40 KU; kinetic units (KU) of apoptosis [12]: 3.00 KU; kinetic units (KU) of apoptosis [13]: 1.80 KU; kinetic units (KU) of apoptosis [14]: 2.40 KU
COc1cccc2c1C(=O)c1c(O)c3c(c(O)c1C2=O)C[C@@](O)(C(=O)CO)C[C@@H]3O[C@H]1C[C@H](N)[C@@H](O)[C@H](C)O1 [Epirubicin]	3.80 KU	0.90 KU	1.20 KU	–	–	1.40 KU	–	–	–	2.70 KU	3.50 KU	1.61 KU	8.70 KU	3.20 KU	–	–
CCC1=C[C@@H]2CN(C1)Cc1c([nH]c3ccccc13)[C@@](C(=O)OC)(c1cc3c(cc1OC)N(C)[C@H]1[C@@](O)(C(=O)OC)[C@H](OC(C)=O)[C@]4(CC)C=CCN5CC[C@]31[C@@H]54)C2 [Vinorelbine]	2.10 KU	1.20 KU	1.70 KU	0.20 KU	0.00 KU	0.40 KU	1.00 KU	0.40 KU	0.00 KU	3.90 KU	2.70 KU	1.18 KU	3.50 KU	2.50 KU	–	–
